Results from patent US20240308976A1, “COMPOUNDS THAT MEDIATE PROTEIN DEGRADATION AND USES THEREOF” (Monte Rosa Therapeutics, Inc., priority 2021, published 2024).

These compounds were tested against CRBN-DDB1 (Homo sapiens, UniProt Q96SW2) (assay: Compound binding to CRBN by HTRF assay). Conditions: CRBN-DDB1 2.5 nM, Cy5-Thalidomide 100 nM, 30 min at ambient temperature; read-out: HTRF Class (Cereblon binding, HTRF IC50).
Experimental: Example 146: Compound Binding to CRBN by HTRF Assay
Compound activity was monitored in a Homogenous Time-Resolved Fluorescence (HTRF) assay using 1-[5-({2-[2-(2-{[2-(2,6-dioxopiperidin-3-yl)-1,3-dioxo-2,3-dihydro-1H-isoindol-4-yl]oxy}acetamido)ethoxy]ethyl}carbamoyl)pentyl]-3,3-dimethyl-2-[(1E,3E)-5-[(2E)-1,3,3-trimethyl-5-sulfo-2,3-dihydro-1H-indol-2-ylidene]penta-1,3-dien-1-yl]-3H-indol-1-ium-5-sulfonate as a fluorescent probe. Biochemical assays were conducted in Greiner white 384 well HiBase plates (Cat. No 784075-25) in 10 μL total volume. A one pot detection solution of CRBN-DDB1 (2.5 nM), Anti-His Terbium Cryptate Gold (1X, PerkinElmer Cat. #: 61HI2TLB), and Cy5-Thalidomide (100 nM, Tenova Cat.: T52461) was prepared in 20 mM HEPES, 20 mM NaCl, 0.2 mM TCEP, 0.2 mM EDTA, and 0.005% Tween20 was dispensed to each assay plate. Compounds were stored in dry, ambient temperatures at 10 mM. A 10-point, 1:3 dilution series was prepared from 10 mM stock concentrations in Echo-compatible LDV plates. 10 nL of each compound dilution series was dispensed into assays wells using an Echo 650 (Labcyte inc. USA). 10 nL of 10 mM Lenalidomide was transferred into the active-control wells for the assay and 10 nL of DMSO was transferred into the neutral-control wells. The assay was then allowed to incubate for 30 min at ambient temperature after transferring compound. Plate measurements were taken on a Pherastar FSX (BMG Labtech, Germany) using the HTRF Red filter (Ex. 337 nm, em1: 620 nm, em2: 665 nm) (Flashes: 50, Integration time: 60-400 us, Z-height: 10 mm, Ratio-multiplier: 10,000). The HTRF signal was then subsequently normalized to the neutral and active controls. Analysis and IC50 values were derived using KNIME analytics (KNIME Zurich) transformation and fitting within Collaborative Drug Discovery (Collaborative Drug Discovery USA). Ki was derived from the geometric mean of the IC50 values using the Cheng-Prustoff transformation.
(§1) In Table 2, each compound is assigned a class (HTRF class) indicating the ability for Cereblon binding by means of their HTRF IC50 values according to […]: A, B, C or D. According to the code, A represents an IC50 value of ≤100 nM, B represents an IC50 value>100 nM and ≤1000 nM, C represents an IC50 value>1000 nM. IF Class assigns each compound a code indicating the ability for GSPT1 degradation: A, B or C. According to the code, A represents a DC50 value of ≤30 nM, B represents a DC50 value>30 nM and ≤300 nM and C represents a DC50 value of >300 nM.

CRBN-DDB1, sequence (Q96SW2 whole entry): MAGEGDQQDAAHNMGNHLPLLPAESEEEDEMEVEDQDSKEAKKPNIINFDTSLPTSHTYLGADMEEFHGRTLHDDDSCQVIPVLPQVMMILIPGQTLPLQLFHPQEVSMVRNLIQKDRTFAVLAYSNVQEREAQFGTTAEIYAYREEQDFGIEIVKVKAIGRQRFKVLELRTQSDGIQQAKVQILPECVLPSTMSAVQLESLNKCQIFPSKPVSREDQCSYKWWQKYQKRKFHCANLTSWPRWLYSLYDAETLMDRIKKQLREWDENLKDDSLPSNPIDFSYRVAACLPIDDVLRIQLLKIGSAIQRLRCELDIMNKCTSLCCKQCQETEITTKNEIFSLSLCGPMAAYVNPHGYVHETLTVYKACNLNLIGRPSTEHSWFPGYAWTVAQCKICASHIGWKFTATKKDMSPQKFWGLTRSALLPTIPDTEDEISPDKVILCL
CRBN-DDB1, sequence (Q16531 whole entry partner): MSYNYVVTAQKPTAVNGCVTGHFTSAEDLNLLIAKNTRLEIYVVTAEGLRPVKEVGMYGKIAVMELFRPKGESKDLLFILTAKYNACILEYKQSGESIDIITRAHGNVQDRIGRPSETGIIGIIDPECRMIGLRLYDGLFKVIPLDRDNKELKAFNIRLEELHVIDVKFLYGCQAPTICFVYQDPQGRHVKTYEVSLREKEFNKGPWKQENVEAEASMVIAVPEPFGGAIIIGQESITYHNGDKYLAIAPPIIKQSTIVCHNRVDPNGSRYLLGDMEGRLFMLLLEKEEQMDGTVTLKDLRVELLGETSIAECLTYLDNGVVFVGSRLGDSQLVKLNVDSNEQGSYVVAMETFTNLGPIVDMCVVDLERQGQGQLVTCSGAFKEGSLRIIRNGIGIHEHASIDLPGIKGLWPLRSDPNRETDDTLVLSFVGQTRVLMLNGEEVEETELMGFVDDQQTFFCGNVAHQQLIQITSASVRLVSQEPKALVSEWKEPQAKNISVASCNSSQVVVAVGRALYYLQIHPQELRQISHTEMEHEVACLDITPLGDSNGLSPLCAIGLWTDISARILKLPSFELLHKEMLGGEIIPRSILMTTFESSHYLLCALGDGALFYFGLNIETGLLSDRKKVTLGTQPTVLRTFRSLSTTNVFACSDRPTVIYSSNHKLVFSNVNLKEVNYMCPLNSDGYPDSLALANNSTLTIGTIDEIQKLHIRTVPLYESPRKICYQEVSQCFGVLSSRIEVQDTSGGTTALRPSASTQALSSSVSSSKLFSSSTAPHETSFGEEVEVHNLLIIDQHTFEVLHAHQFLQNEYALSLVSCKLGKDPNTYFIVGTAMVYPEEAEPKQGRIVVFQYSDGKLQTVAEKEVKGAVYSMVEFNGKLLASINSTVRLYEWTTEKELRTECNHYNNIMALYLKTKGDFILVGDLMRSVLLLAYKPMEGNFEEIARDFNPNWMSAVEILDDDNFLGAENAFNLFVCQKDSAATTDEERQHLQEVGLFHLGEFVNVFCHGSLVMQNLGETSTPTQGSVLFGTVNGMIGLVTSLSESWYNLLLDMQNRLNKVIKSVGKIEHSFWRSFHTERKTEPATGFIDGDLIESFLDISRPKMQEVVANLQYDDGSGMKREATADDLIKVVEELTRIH

Row | Structure (SMILES) | IC50 [nM]
1 | O=C1CCC(c2c(F)cc(N3CC(OC(=O)NCC4COC4)C3)cc2F)C(=O)N1 (centres unmarked) [Compound 141, 1-(4-(2,6-dioxopiperidin-3-yl)-3,5-difluorophenyl) azetidin-3-yl (oxetan-3-ylmethyl)carbamate] | ≤ 100
2 | O=C1CCC(c2c(F)cc(N3CC(OC(=O)Nc4cnc(-c5ccccc5)nc4)C3)cc2F)C(=O)N1 (centres unmarked) [Compound 51, 1-(4-(2,6-dioxopiperidin-3-yl)-3,5-difluorophenyl)azetidin-3-yl(2-phenylpyrimidin-5-yl)carbamate] | 100 to 1000
3 | Cc1cc(C)cc(NC(=O)OC2CN(c3cc(F)c(C4CCC(=O)NC4=O)c(F)c3)C2)c1 (centres unmarked) [Compound 4, 1-(4-(2,6-dioxopiperidin-3-yl)-3,5-difluorophenyl)azetidin-3-yl (3,5-dimethyl phenyl)carbamate] | 100 to 1000

Each compound was assayed against T1, GSPT1 (Homo sapiens, UniProt P15170+Q96SW2) (assay: Immunofluorescence assay for activity to degrade GSPT1 in CAL-51 cells). Conditions: 6 h treatment, read-out: IF Class (GSPT1 degradation, DC50).
T1 construct: CAL-51 cells were purchased from DSMZ (cat. Number ACC302); host or cells: CAL-51
Type: cell-based
Experimental: Example 147: Compound Activity by Immunofluorescence Assay
The representative compounds were tested in an immunofluorescence assay for their activity to degrade GSPT1. CAL-51 cells were purchased from DSMZ (cat. Number ACC302), sub-cultured in 90% Dulbecco's MEM (4.5 g/L glucose, Gibco 11965)+10% heat inactivated FBS (BioConcept, 2-01F136I) and incubated at 37° C., 5% CO2. For the assay imaging microtiter plate Cell Carrier 96 Ultra (Perkin Elmer 6055302) were pre-coated with Fibronectin (Sigma F085, 30 μL at 0.2 μg/mL) in PBS (100 μL, Gibco 14190) for 45 min at room temperature, rinsed with PBS and CAL-51 cells (30K cells/well) were plated and let to adhere overnight. Cells were treated with compounds typically using a serial dilution ranging from 30 μM to 0.1 nM for 6 h. Compounds were stored at 10 mM DMSO stocks. Vehicle (DMSO), positive (CC-885, 10 μM) and rescue controls (positive control plus 0.2 μM bortezomib) were also included at this stage. Cells were subsequently rinsed with PBS and fixed in 10% Formalin solution (50 μL, Sigma HT5011)) for 20 mins at room temperature. Following three consecutive PBS washes (100 μL), cells were permeabilized in 0.1% Triton X-100 in PBS (Sigma 93443, 50 μL) for 15 min. at room temperature. Following three further PBS washes, 50 μL blocking buffer (1% BSA, Sigma A4503, in PBS) was added for 45 min for signal-to noise reduction. Primary antibody (human GSPT1, Sigma HPA052488) was diluted in blocking buffer (dil.1/300, 35 μL/well) and incubated with the cells overnight at 4° C. After three PBS washes, Alexa-fluor 488 coupled secondary antibodies (Invitrogen, A32731, dil. 1/1000), Alexa-fluor 647-Phalloidin (Invitrogen, A22287, dil. 1/200) and DAPI (Thermo, #62248, dil. 1/1000) were diluted in blocking buffer and incubated with the samples for 2 h at room temperature. After three final PBS washes, samples were conserved in 100 μL PBS in the dark, until measurement. Image acquisition was performed on the Operetta High-Content Imager (Perkin-Elmer). Fluorescence intensity of […] (GSPT1), Alexa-Fluor 647 (Actin) and DAPI (Nucleus) were measured. For the determination of GSPT1 DC50 values, a custom algorithm implemented in the PerkinElmer image analysis software Harmony-Acapella® was developed. After user-defined setting of adjustment parameters, the analysis was run identically without human intervention for all image fields. DAPI staining of the nuclei was used to determine the location of cells using standard nuclei detection modules. Segmentation artifacts were removed by threshold-based filters for area, roundness and intensity. The outline of the cells was determined analogously from the sum of the normalized, smoothed DAPI and Actin channel, starting from each nucleus. The Alexa-Fluor 488 (GSPT1) signal intensity in each cell was finally measured, in order to obtain a Mean intensity per cell. GSPT1 degradation (DC50) was calculated after normalization to controls and data import in CDD vault Database, using non-linear regression.
as §1

T1 sequence (P15170 whole entry): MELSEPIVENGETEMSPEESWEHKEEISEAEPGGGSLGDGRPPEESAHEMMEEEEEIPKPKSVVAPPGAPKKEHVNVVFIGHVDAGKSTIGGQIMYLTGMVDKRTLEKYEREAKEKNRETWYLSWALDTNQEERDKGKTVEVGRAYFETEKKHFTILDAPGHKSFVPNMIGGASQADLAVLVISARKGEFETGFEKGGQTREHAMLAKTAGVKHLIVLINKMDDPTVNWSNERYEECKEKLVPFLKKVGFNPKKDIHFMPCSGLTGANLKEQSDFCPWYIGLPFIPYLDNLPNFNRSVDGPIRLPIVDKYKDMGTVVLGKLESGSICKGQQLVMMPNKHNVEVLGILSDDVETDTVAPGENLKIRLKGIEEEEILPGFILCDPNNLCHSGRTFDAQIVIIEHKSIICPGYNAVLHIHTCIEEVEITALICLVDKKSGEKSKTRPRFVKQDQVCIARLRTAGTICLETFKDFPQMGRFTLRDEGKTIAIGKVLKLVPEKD
T1 sequence (Q96SW2 whole entry): as the sequence (Q96SW2 whole entry) above
T1 sequence (Q16531 2-1140 partner limits assumed): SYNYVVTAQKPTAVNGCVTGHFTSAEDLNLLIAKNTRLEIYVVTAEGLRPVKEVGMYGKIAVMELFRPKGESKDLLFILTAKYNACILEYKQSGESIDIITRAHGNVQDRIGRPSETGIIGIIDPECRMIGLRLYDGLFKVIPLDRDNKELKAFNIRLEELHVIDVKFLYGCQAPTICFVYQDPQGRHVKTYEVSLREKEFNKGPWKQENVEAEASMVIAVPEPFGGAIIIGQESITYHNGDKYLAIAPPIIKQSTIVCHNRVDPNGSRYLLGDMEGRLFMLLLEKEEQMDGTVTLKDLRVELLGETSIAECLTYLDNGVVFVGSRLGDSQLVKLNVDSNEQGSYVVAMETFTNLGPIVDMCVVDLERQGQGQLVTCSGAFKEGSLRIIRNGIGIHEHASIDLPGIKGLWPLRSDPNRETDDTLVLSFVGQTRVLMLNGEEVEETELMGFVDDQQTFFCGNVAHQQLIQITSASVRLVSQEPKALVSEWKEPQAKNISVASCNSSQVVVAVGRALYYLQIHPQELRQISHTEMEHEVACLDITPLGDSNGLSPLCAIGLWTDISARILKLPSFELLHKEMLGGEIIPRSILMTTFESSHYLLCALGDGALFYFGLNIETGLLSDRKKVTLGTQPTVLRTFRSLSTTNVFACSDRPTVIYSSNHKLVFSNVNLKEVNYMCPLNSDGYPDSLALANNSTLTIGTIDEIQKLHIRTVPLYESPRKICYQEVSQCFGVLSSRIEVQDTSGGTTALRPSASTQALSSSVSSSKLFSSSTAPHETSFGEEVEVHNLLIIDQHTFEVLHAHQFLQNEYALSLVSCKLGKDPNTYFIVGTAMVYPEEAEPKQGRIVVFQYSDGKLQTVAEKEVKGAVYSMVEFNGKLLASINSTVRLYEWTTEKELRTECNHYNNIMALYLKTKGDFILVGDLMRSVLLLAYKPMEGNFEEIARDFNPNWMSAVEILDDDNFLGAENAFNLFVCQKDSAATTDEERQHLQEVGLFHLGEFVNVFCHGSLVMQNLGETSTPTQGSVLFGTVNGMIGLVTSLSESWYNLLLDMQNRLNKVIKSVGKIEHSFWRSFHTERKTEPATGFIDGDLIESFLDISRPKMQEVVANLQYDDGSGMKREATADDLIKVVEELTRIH

Row | Structure (SMILES) | DC50 [nM]
4 | O=C1CCC(c2c(F)cc(N3CC(OC(=O)NCC4COC4)C3)cc2F)C(=O)N1 (centres unmarked) [Compound 141, 1-(4-(2,6-dioxopiperidin-3-yl)-3,5-difluorophenyl) azetidin-3-yl (oxetan-3-ylmethyl)carbamate] | > 300
5 | O=C1CCC(c2c(F)cc(N3CC(OC(=O)Nc4cnc(-c5ccccc5)nc4)C3)cc2F)C(=O)N1 (centres unmarked) [Compound 51, 1-(4-(2,6-dioxopiperidin-3-yl)-3,5-difluorophenyl)azetidin-3-yl(2-phenylpyrimidin-5-yl)carbamate] | ≤ 30
6 | Cc1cc(C)cc(NC(=O)OC2CN(c3cc(F)c(C4CCC(=O)NC4=O)c(F)c3)C2)c1 (centres unmarked) [Compound 4, 1-(4-(2,6-dioxopiperidin-3-yl)-3,5-difluorophenyl)azetidin-3-yl (3,5-dimethyl phenyl)carbamate] | 30 to 300
7 | O=C1CCC(c2c(F)cc(N3CC(OC(=O)NCC4CCOCC4)C3)cc2F)C(=O)N1 (centres unmarked) [Compound 117, 1-(4-(2,6-dioxopiperidin-3-yl)-3,5-difluorophenyl)azetidin-3-yl ((tetrahydro-2H-pyran-4-yl)methyl)carbamate] | > 300
8 | CO[C@H]1CC[C@@H](NC(=O)OC2CN(c3cc(F)c(C4CCC(=O)NC4=O)c(F)c3)C2)CC1 (stereo partly drawn) [Compound 119, 1-(4-(2,6-dioxopiperidin-3-yl)-3,5-difluorophenyl) azetidin-3-yl ((1S,4S)-4-methoxycyclohexyl) carbamate] | > 300
9 | O=C1CCC(c2c(F)cc(N3CC(NC(=O)N[C@@H]4CCC(F)(F)C4)C3)cc2F)C(=O)N1 (stereo partly drawn) [Compound 111, 1-((R)-3,3-difluorocyclopentyl)-3-(1-(4-(2,6-dioxopiperidin-3-yl)-3,5-difluorophenyl)azetidin-3-yl)urea] | > 300
10 | CSCCNC(=O)OC1CN(c2cc(F)c(C3CCC(=O)NC3=O)c(F)c2)C1 (centres unmarked) [Compound 118, 1-(4-(2,6-dioxopiperidin-3-yl)-3,5-difluorophenyl)azetidin-3-yl(2-(methylthio)ethyl)carbamate] | > 300
11 | C[C@H](NC(=O)OC1CN(c2cc(F)c(C3CCC(=O)NC3=O)c(F)c2)C1)C1CCCCC1 (stereo partly drawn) [Compound 115, 1-(4-(2,6-dioxopiperidin-3-yl)-3,5-difluorophenyl)azetidin-3-yl((S)-1-cyclohexylethyl)carbamate] | ≤ 30
12 | O=C1CCC(c2c(F)cc(N3CC(OC(=O)NCC45C[C@H]6C[C@@H](C4)C[C@@H](C5)C6)C3)cc2F)C(=O)N1 (stereo partly drawn) [Compound 106, 1-(4-(2,6-dioxopiperidin-3-yl)-3,5-difluorophenyl)azetidin-3-yl((3R,5R,7R)-adamantan-1-ylmethyl) carbamate] | ≤ 30
13 | CN1CCC(CNC(=O)OC2CN(c3cc(F)c(C4CCC(=O)NC4=O)c(F)c3)C2)CC1 (centres unmarked) [Compound 114, 1-(4-(2,6-dioxopiperidin-3-yl)-3,5-difluorophenyl)azetidin-3-yl((1-methylpiperidin-4-yl)methyl)carbamate] | > 300
14 | O=C1CCC(c2c(F)cc(N3CC(OC(=O)NCCC(F)(F)F)C3)cc2F)C(=O)N1 (centres unmarked) [Compound 109, 1-(4-(2,6-dioxopiperidin-3-yl)-3,5-difluorophenyl)azetidin-3-yl (3,3,3-trifluoropropyl)carbamate] | > 300
15 | O=C1CCC(c2c(F)cc(N3CC(OC(=O)NC45CCC(CC4)CC5)C3)cc2F)C(=O)N1 (centres unmarked) [Compound 98, 1-(4-(2,6-dioxopiperidin-3-yl)-3,5-difluorophenyl)azetidin-3-yl bicyclo[2.2.2]octan-1-ylcarbamate] | ≤ 30
16 | COCC(COC)NC(=O)OC1CN(c2cc(F)c(C3CCC(=O)NC3=O)c(F)c2)C1 (centres unmarked) [Compound 108, 1-(4-(2,6-dioxopiperidin-3-yl)-3,5-difluorophenyl)azetidin-3-yl (1,3-dimethoxypropan-2-yl)carbamate] | > 300
17 | CC(C)N1CCC(NC(=O)NC2CN(c3cc(F)c(C4CCC(=O)NC4=O)c(F)c3)C2)C1 (centres unmarked) [Compound 120, 1-(1-(4-(2,6-dioxopiperidin-3-yl)-3,5-difluorophenyl)azetidin-3-yl)-3-(1-isopropylpyrrolidin-3-yl) urea] | > 300
18 | CN1CCC(NC(=O)NC2CN(c3cc(F)c(C4CCC(=O)NC4=O)c(F)c3)C2)C1 (centres unmarked) [Compound 121, 1-(1-(4-(2,6-dioxopiperidin-3-yl)-3,5-difluorophenyl)azetidin-3-yl)-3-(1-methylpyrrolidin-3-yl)urea] | > 300
19 | O=C1CCC(c2c(F)cc(N3CC(OC(=O)NC4CCSCC4)C3)cc2F)C(=O)N1 (centres unmarked) [Compound 116, 1-(4-(2,6-dioxopiperidin-3-yl)-3,5-difluorophenyl)azetidin-3-yl(tetrahydro-2H-thiopyran-4-yl)carbamate] | ≤ 30
20 | CCC(C)CNC(=O)OC1CN(c2cc(F)c(C3CCC(=O)NC3=O)c(F)c2)C1 (centres unmarked) [Compound 122, 1-(4-(2,6-dioxopiperidin-3-yl)-3,5-difluorophenyl) azetidin-3-yl (2-methylbutyl)carbamate] | 30 to 300
21 | O=C1CCC(c2c(F)cc(N3CC(OC(=O)NC45CCC(C4)C5)C3)cc2F)C(=O)N1 (centres unmarked) [Compound 112, 1-(4-(2,6-dioxopiperidin-3-yl)-3,5-difluorophenyl)azetidin-3-ylbicyclo[2.1.1]hexan-1-ylcarbamate] | 30 to 300
22 | O=C1CCC(c2c(F)cc(N3CC(OC(=O)NC4[C@H]5C[C@@H]6C[C@@H](C[C@H]4C6)C5)C3)cc2F)C(=O)N1 (stereo partly drawn) [Compound 107, 1-(4-(2,6-dioxopiperidin-3-yl)-3,5-difluorophenyl)azetidin-3-yl (1R,3S,5R,7R)-adamantan-2-ylcarbamate] | 30 to 300
23 | O=C1CCC(c2c(F)cc(N3CC(OC(=O)N4CC5(COC5)C4)C3)cc2F)C(=O)N1 (centres unmarked) [Compound 105, 1-(4-(2,6-dioxopiperidin-3-yl)-3,5-difluorophenyl)azetidin-3-yl 2-oxa-6-azaspiro[3.3]heptane-6-carboxylate] | > 300
